From patent publication US12522593B2, “Azacycloalkyl carbonyl cyclic amine compound” (Alivexis, Inc., priority 2022, dated 2026)
Where a name gives a salt, the structure may show the parent alone.

Key:
human recombinant CTSC = human recombinant CTSC (Homo sapiens (Human), UniProt P53634); experiment: CTSC inhibition assay (in vitro), fluorescent substrate GF-AFC; type: biochemical; conditions: 30 μmol/L GF-AFC, pH 5.0, 25° C.
Description: 1. CTSC Inhibition Assay (In Vitro)
A test specimen was evaluated by a CTSC inhibition assay using a fluorescent substrate GF-AFC (Gly-Phe-7-Amino-4-trifluoromethylcoumarin, MP Biomedical, 03AFC03325). Since the GF-AFC is converted by CTSC to aminotrifluoromethylcoumarin having a specific fluorescence wavelength and the produced amount is proportional to CTSC activity, quantitative analysis was performed by measuring a fluorescence intensity with a plate reader. CTSC inhibition assay for each compound was performed using a polystyrene-made non-adhesive surface-treated black 384 well plate under the following conditions.
A human recombinant CTSC (R&D systems, 1071-CY) was dissolved in a CTSC active cocktail (20 ng/mL of human recombinant cathepsin L (R&D systems, 952-CY, 25 mmol/L MES/NaOH (pH: 6.0), 5 mmol/L dithiothreitol (DTT)) so as to be 100 ng/mL and incubated at 18° C. for 30 minutes. The solution was diluted with a CTSC assay buffer (50 mmol/L MES/NaOH (pH: 5.0), 50 mmol/L NaCl, 0.001% Triton X-100, mmol/L DTT) so as to be 2 ng/mL in a case of performing CTSC inhibition assay.
The test specimen was dissolved in dimethylsulfoxide (DMSO) at 10 mmol/L to prepare a stock solution. In a case where a solution in which the stock solution was diluted 15-fold with DMSO was used as the maximum evaluation concentration (0.667 mmol/L), 5-fold dilution was repeated in DMSO from the solution to prepare a serially diluted solution. 248.8 μL of the CTSC assay buffer was added to 1.12 μL of the serially diluted sample prepared in the DMSO to prepare a solution of a CTSC inhibition assay compound.
The final composition of the CTSC inhibition assay mixture was 0.66 ng/mL activated CTSC, 50 mmol/L MES/NaOH (pH: 5.0), 50 mmol/L NaCl, 0.001% Triton X-100, 5 mmol/L DTT, 30 μmol/L GF-AFC, and 0.15% DMSO, and the procedure was as follows. That is, 4 μL of the compound solution and 4 μL of the 2 ng/mL activated CTSC solution were mixed with each other in a 384 well plate and incubated at 25° C. for 30 minutes. Thereafter, 4 μL of the GF-AFC solution dissolved in the CTSC assay buffer was added to the mixture so as to be 90 μmol/L. After mixing to be uniform, a fluorescence emission intensity at 505 nm in a case of being excited at 390 nm after incubating at 25° C. for 1 hour was measured with a plate reader. A 4-parameter regression analysis was performed with GraphPad Prism (manufactured by GraphPad Software) from a plot of the fluorescence intensity at 505 nm and the sample concentration, and an IC50 value was calculated.
Results of test compounds of Formula (I) are shown in Table 1 as IC50 (nM) values for which 50% inhibition concentration is calculated based on CTSC inhibition (%). In the table, Ex indicates an example number.

CTSC in U937 cells = CTSC in U937 cells (Homo sapiens (Human), UniProt P53634); experiment: Intracellular CTSC inhibition assay (in vitro), LLOMe-induced cell death in U937 cells; type: cell-based; conditions: 3 hours culture, CellTiter-Glo
Sequence of CTSC in U937 cells (P53634 25-463): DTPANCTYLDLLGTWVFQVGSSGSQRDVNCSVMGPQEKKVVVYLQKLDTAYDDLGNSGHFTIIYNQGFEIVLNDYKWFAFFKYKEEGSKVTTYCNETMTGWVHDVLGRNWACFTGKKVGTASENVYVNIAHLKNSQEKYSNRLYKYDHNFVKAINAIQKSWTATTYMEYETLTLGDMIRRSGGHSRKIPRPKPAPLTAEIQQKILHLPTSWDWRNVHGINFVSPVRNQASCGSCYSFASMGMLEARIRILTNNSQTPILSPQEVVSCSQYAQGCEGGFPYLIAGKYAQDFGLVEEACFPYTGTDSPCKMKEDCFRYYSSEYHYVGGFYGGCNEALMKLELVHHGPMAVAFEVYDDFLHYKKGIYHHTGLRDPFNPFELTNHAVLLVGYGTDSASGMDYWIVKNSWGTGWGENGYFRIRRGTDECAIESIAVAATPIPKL
Description: 2. Intracellular CTSC Inhibition Assay (In Vitro)
A test specimen was evaluated by a degree of cell death in a case where a substrate LLOMe (L-Leucyl-L-Leucine methyl ester, hydrobromide salt, Sigma, 555045152) was added to U937 cells. The LLOMe is taken up into the cells by endocytosis and cleaved by CTSC. A product thereof induces lysosomal damage in cells and causes cell death in leukocytes and the like. Therefore, since the degree of cell death correlates with an amount of degradation of LLOMe, that is, with CTSC activity, by quantitatively analyzing the cell death, CTSC inhibitory activity of the test specimen in the cell was determined. CTSC inhibition assay was performed using a polystyrene-made white 384 well plate.
As the test specimen, a stock solution dissolved in DMSO was prepared so as to be 0.2 mmol/L, and in a case where a solution in which the stock solution was diluted 50-fold with a RPMI-1640 medium including 10% FBS was used as the maximum evaluation concentration (4000 nmol/L), a serially diluted solution was prepared by diluting the solution 3-fold with the medium. Thereafter, a 4-fold concentrated test specimen solution with the target final concentration was prepared.
U937 cells were cultured in a RPMI-1640 medium including 10% FBS, and diluted to prepare 90,000 cells/mL of cell suspension on the day of assay. 10 μL of the cell suspension was seeded per well. Next, 10 μL of the test specimen solution having a concentration 4 times the target final concentration was added thereto, and the mixture was allowed to stand for 30 minutes. Thereafter, 20 μL of a 300 μmol/L LLOMe solution dissolved in a RPMI-1640 medium including 10% FBS was added thereto, and the cells were cultured for 3 hours. After completion of the culture, 40 μL of CellTiter-Glo (registered trademark) reagent (Promega, G7570) was added to each well and mixed. After 15 minutes, 20 μL of the reaction solution in each well was transferred to a white 384 well plate, and a chemiluminescence intensity was measured with a plate reader. A 4-parameter regression analysis was performed with GraphPad Prism (manufactured by GraphPad Software) from a plot of the luminescence intensity and the sample concentration, and an IC50 value was calculated.
Results of test compounds of Formula (1) are shown in Table 2 as IC50 (nM) values for which 50% inhibition concentration is calculated based on CTSC inhibition (%). In the table, Ex indicates an example number.

Sequence of human recombinant CTSC (P53634 25-134): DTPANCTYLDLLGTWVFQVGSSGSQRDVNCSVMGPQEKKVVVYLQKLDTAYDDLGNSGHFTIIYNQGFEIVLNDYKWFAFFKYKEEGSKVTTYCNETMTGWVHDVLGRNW
Sequence of human recombinant CTSC (P53634 231-394): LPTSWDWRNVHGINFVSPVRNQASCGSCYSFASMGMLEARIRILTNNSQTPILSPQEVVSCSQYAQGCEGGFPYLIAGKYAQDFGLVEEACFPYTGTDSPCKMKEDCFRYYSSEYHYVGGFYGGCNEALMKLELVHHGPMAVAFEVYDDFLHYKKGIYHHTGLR
Sequence of human recombinant CTSC (P53634 395-463): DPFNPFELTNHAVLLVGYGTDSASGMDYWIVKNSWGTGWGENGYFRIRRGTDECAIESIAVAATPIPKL

| SMILES | IC50 (human recombinant CTSC) | IC50 (CTSC in U937 cells) |
| --- | --- | --- |
| CC(C)C1(C(=O)NCC2CCC(F)(F)CC2)CN(C(=O)[C@@H]2C[C@@H](O)C3(CCC3)CN2)C1 [Example 20] | 0.83 nM | 227 nM |
| O=C([C@@H]1C[C@@H](O)C2(CCC2)CN1)N1CCC(c2noc(C3CCC(F)(F)CO3)n2)(C(F)(F)F)CC1 (stereo partly drawn) [Example 63, (4-(5-(5,5-Difluorotetrahydro-2H-pyran-2-yl)-1,2,4-oxadiazol-3-yl)-4-(trifluoromethyl)piperidin-1-yl)((7S,9R)-9-hydroxy-6-azaspiro[3.5]nonan-7-yl)methanone] | 1.85 nM | 1.01 nM |
| CC1(O)CC[C@@H](C(=O)N2CCC(c3noc(C4CC(F)(F)C4)n3)(C(F)(F)F)CC2)NC1 (stereo partly drawn) [Example 76] | 187 nM | > 111 nM |
| CC1(C)CN[C@H](C(=O)N2CCC(c3nnn(-c4ccc(F)cc4)n3)CC2)C[C@H]1O [Example 90, (4-(2-(4-Fluorophenyl)-2H-tetrazol-5-yl)piperidin-1-yl)((2S,4R)-4-hydroxy-5,5-dimethylpiperidin-2-yl)methanone] | 4.34 nM | 0.54 nM |
| O=C([C@@H]1C[C@@H](O)C2(CCC2)CN1)N1CCC(c2ccc(F)cn2)(c2noc(C3CC(F)(F)C3)n2)CC1 [Example 44] | 2.74 nM | 4.24 nM |
| CC1(C)CN[C@H](C(=O)N2CCC(c3noc(C4CCC(F)(F)CC4)n3)(C(F)(F)F)CC2)C[C@H]1O [Example 56, (4-(5-(4,4-Difluorocyclohexyl)-1,2,4-oxadiazol-3-yl)-4-(trifluoromethyl)piperidin-1-yl)((2S,4R)-4-hydroxy-5,5-dimethylpiperidin-2-yl)methanone] | 2.06 nM | 0.71 nM |
| O=C([C@@H]1C[C@@H](O)C2(CCC2)CN1)N1CCC(C(=O)N2CCC(C(F)(F)F)C2)(C(F)(F)F)CC1 (stereo partly drawn) [Example 35] | 3.39 nM | 6.54 nM |
| O=C([C@@H]1C[C@@H](O)C2(CCC2)CN1)N1CCC(c2ccsc2)(c2noc(C3CC(F)(F)C3)n2)CC1 [Example 79] | 2.17 nM | 0.75 nM |
| CC(C)C1(c2nc(C3CCC(F)(F)CC3)no2)CCN(C(=O)[C@@H]2C[C@@H](O)C3(CCC3)CN2)CC1 [Example 12] | 1.03 nM | 0.34 nM |
| CN(CC1CCC(F)(F)CC1)C(=O)C1(C(F)(F)F)CCN(C(=O)[C@@H]2C[C@@H](O)C3(CCC3)CN2)CC1 [Example 8] | 1.6 nM | 1.62 nM |
| O=C([C@@H]1C[C@@H](O)C2(CCC2)CN1)N1CCC(c2noc(C3CCCCO3)n2)(C(F)(F)F)CC1 (stereo partly drawn) [Example 59] | 3.61 nM | 0.7 nM |
| O=C([C@@H]1C[C@@H](O)C2(CCC2)CN1)N1CCC(c2nnn(-c3ccc(F)c(F)c3)n2)CC1 [Example 96] | 1.89 nM | 0.37 nM |
| O=C([C@@H]1C[C@@H](O)C2(CCC2)CN1)N1CCC(c2nnn(-c3ccc(F)cc3)n2)(C(F)(F)F)CC1 [Example 95] | 3.02 nM | 0.2 nM |
| Cc1ccc(C2(C(=O)NCC3CCC(F)(F)CC3)CCN(C(=O)[C@@H]3CC[C@@]4(CCO4)CN3)CC2)cc1 [Example 84] | 1.25 nM | 1.92 nM |
| O=C([C@@H]1C[C@@H](O)C2(CCC2)CN1)N1CCC(c2cn(C3CCC(F)(F)CC3)nn2)(C(F)(F)F)CC1 [Example 81] | 1.31 nM | 13.7 nM |
| CC(C)C1(c2nc(C3CC(C)(C)C3)no2)CN(C(=O)[C@@H]2CC[C@@]3(CCO3)CN2)C1 [Example 29] | 1.47 nM | 11.3 nM |
| O=C([C@@H]1C[C@@H](O)C2(CCC2)CN1)N1CCC(C(=O)NCC2CCC(F)(F)CC2)(C(F)(F)F)CC1 [Example 22] | 1.03 nM | 20.8 nM |
| CC(C)C1(c2noc(C3CCC(F)(F)CC3)n2)CCN(C(=O)[C@@H]2CCC3(CC3)CN2)CC1 [Example 46] | 53.5 nM | 42.5 nM |
| O=C([C@@H]1C[C@@H](O)C2(CCC2)CN1)N1CCC(c2nnn(Cc3ccccc3)n2)CC1 [Example 102] | 9.48 nM | 9.46 nM |
| O=C([C@@H]1C[C@@H](O)C2(CCC2)CN1)N1CCC(c2nccc(N3CCC(F)(F)CC3)n2)CC1 [Example 94] | 0.37 nM | 3.86 nM |
| CN(CC1CCC(F)(F)CC1)C(=O)C1(C(F)(F)F)CCN(C(=O)[C@@H]2CC[C@@]3(CCO3)CN2)CC1 [Example 7] | 10.4 nM | 23.6 nM |
| O=C([C@@H]1C[C@@H](O)C2(CCC2)CN1)N1CCC(c2nc(C3CCC(F)(F)CC3)no2)(C(F)(F)F)CC1 [Example 13] | 1.7 nM | 0.19 nM |
| O=C([C@@H]1C[C@@H](O)C2(CCC2)CN1)N1CCC(C(=O)N2CCOC3(CC3)C2)(C(F)(F)F)CC1 [Example 32] | 25.5 nM | 8.84 nM |
| O=C([C@@H]1CC[C@@]2(CCO2)CN1)N1CCC(c2nc(C3CCC(F)(F)CC3)cs2)(C(F)(F)F)CC1 [Example 4] | 4.85 nM | 5.64 nM |
| O=C([C@@H]1C[C@@H](O)C2(CCC2)CN1)N1CCC(c2noc(C3CCOCC3)n2)(C(F)(F)F)CC1 [Example 61] | 5.72 nM | 1.75 nM |
| O=C([C@@H]1C[C@@H](O)C2(CCC2)CN1)N1CCC(c2cnc(N3CCC(F)(F)CC3)s2)CC1 [Example 92] | 2.76 nM | 3.62 nM |
| CC1(C)CN[C@H](C(=O)N2CCC(c3noc(C4CCC(F)(F)CC4)n3)(C3CC3)CC2)C[C@H]1O [Example 80, (4-Cyclopropyl-4-(5-(4,4-Difluorocyclohexyl)-1,2,4-oxadiazol-3-yl)piperidin-1-yl)((2S,4R)-4-hydroxy-5,5-dimethylpiperidin-2-yl)methanone] | 1.86 nM | 0.65 nM |
| CC(=O)N(C)C1(c2nc(C3CC(F)(F)C3)no2)CCN(C(=O)[C@@H]2C[C@@H](O)C3(CCC3)CN2)CC1 [Example 77] | 3.79 nM | > 333 nM |
| CC(C)C1(c2nnc(C3CCC(F)(F)CC3)o2)CN(C(=O)[C@@H]2C[C@@H](O)C3(CCC3)CN2)C1 [Example 16, (3-(5-(4,4-difluorocyclohexyl)-1,3,4-oxadiazol-2-yl)-3-isopropylazetidine-1-yl)((7S,9R)-9-hydroxy-6-azaspiro[3.5]nonan-7-yl)methanone trifluoroacetate] | 3.17 nM | 19.2 nM |
| CC1(C)CN[C@H](C(=O)N2CCC(c3nc(C4CCC(F)(F)CC4)no3)(C(F)(F)F)CC2)C[C@H]1O [Example 57] | 3.57 nM | 0.55 nM |
